From PubChem BioAssay (NCI) come the findings set out here.

“And” between values parts separate entries of the source, which are not always exact repeats. Equal entries are not always repeated.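 Step 1: Grow cells in 96-well plates. Step 2: Expose to compound for 48 hours at 5 concentrations. Step 3: Interpolate endpoints linearly; if unreached, use highest concentration. The concentration for 50% growth inhibition is given as GI50. TGI marks complete inhibition of growth.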

What all share (assay): NCI anticancer screen, dose series, 48 h
For assay [1], the system named is TK-10 renal.
The test system of assay [2] is SK-MEL-28 melanoma.
Assay [3] deals with SF-295 CNS.
In assay [4] the test system is OVCAR-8 ovarian.
For assay [5], the system named is RXF 393 renal.
Assay [6] deals with CCRF-CEM leukemia.
For assay [7], the system named is SK-MEL-5 melanoma.
The subject of assay [8] is 786-0 renal.
Assay [9] deals with PC-3 prostate.
Assay [10] deals with MDA-MB-435.
Assay [11] has as its system MCF7 breast.
Assay [12] relates to MOLT-4 leukemia.

On to `COc1ccccc1OCC(COC(=O)Nc1ccccc1)OC(=O)Nc1ccccc1` (stereo unspecified), for which the TGI in assay [1] is more than 100 µM; in assay [2] it was more than 100 µM; in assay [3], more than 100 µM; in assay [4], more than 100 µM; in assay [5], 46.8 µM; in [6], more than 100 µM. The molecule also gave a TGI in assay [7] of more than 100 µM.

Consider `CCC1(O)CC(OC2CC(N(C)C)C(OC3CC(O)C(OC4OC(C)C(=O)C=C4N)C(C)O3)C(C)O2)c2c(cc3c(c2O)C(=O)c2c(O)cccc2C3=O)C1C(=O)OC` (stereo unspecified), for which the TGI in assay [8] was 0.0971 µM; in assay [9], 0.333 µM and 1.1 µM; in [1], 1.1 µM and 2.31 µM; in assay [2], 0.363 µM and 0.189 µM; in [3], 1.53 µM and 1.13 µM; in assay [4], 1.59 µM and 1.32 µM. In addition, the TGI is 0.131 µM and 0.818 µM in assay [6]; 0.282 µM and 0.05 µM in assay [10]; 0.179 µM and 0.101 µM in assay [7]; 0.756 µM and 2.64 µM in [11]. Moreover, in [1], the GI50 was 0.0398 µM.

`O=C(COc1ccc(OCC(=O)N2C(=O)CC(=O)N(c3ccc(Cl)cc3)C2=S)cc1)N1C(=O)CC(=O)N(c2ccc(Cl)cc2)C1=S`: the TGI in [8] was 80.1 µM; in [9] it was more than 100 µM; in [1] it was more than 100 µM; in assay [2], more than 100 µM; in assay [12], more than 100 µM; in assay [3] it was more than 100 µM. For the same molecule, the TGI in assay [5] was 83.1 µM; in [10] it was more than 100 µM; in [7] it was more than 100 µM; in [11], more than 100 µM.

As for `COC(C/C(=C/CO[Si](C(C)C)(C(C)C)C(C)C)C(=O)N(COCC[Si](C)(C)C)c1ccccc1I)OC`, the TGI is more than 100 µM in assay [8]; 83.6 µM in [9]; more than 100 µM in assay [1]; 50 µM in assay [2]; more than 100 µM in assay [12]; 17.4 µM in [3]. Also, the TGI in [4] was more than 100 µM; in assay [6], more than 100 µM; in assay [10], 29.1 µM; in assay [7], more than 100 µM.

As for `Cc1c(CNc2ccc(C(=O)NC(CCCNC(=O)c3ccccc3C(=O)O)C(=O)O)cc2)cnc2nc(N)nc(N)c12` (stereo unspecified), the TGI is more than 100 µM in assay [8], more than 100 µM in [9] and 2.15 µM in assay [5]. Also, the GI50 in [9] was less than 0.0001 µM; in assay [1] it was more than 100 µM; in assay [5] it was 0.279 µM; in [6], more than 100 µM.

Take `C#C[C@]1(O)CC[C@H]2[C@@H]3CCC4=C/C(=N/NC(=O)c5cccc6c(=O)c7ccccc7[nH]c56)CCC4[C@H]3CC[C@@]21C` (stereo partly specified): the TGI in assay [8], in assay [9], in assay [1], in assay [12], in [3] and in assay [4] was more than 100 µM throughout. The TGI is more than 100 µM in [6], more than 100 µM in [10], 64.8 µM in [7] and more than 100 µM in assay [11].

In the case of `COC(=O)[C@@H]1CS(=O)(=O)C(C(C)C)N1C(C)=O` (stereo partly specified), the TGI in [8], in assay [9], in assay [1], in assay [2], in assay [3] and in [4] was more than 100 µM throughout. For the same molecule, the TGI in assay [5], in assay [10], in assay [7] and in assay [11] was more than 100 µM each time.

Take `Nc1cc2c(c3ccccc13)C(CCl)CN2C(=O)c1cc2cc(NC(=O)Nc3ccc4[nH]c(C(=O)N5CC(CCl)c6c5cc(N)c5ccccc65)cc4c3)ccc2[nH]1` (stereo unspecified): the TGI in [8] amounted to 0.258 µM; in assay [9] it was 12.8 µM; in [1], 3.75 µM; in assay [2], 2.52 µM; in assay [3], 2.99 µM; in [5] it was 0.248 µM. Further, the TGI in assay [6] stood at 2.98 µM; in [10] it was 4.33 µM; in [7], 0.341 µM; in assay [11], 1.4 µM.

In the case of `COc1ccc(C2C3=C(N=C4SC(C(C)=O)=C(C)N42)c2ccccc2CC3)cc1` (stereo unspecified), the TGI in assay [8], in [9], in [2], in [3], in assay [4] and in [5] was more than 100 µM throughout. The TGI in assay [6], in assay [10], in assay [7] and in assay [11] was more than 100 µM each time.

`CCn1c(=O)c2nc(SC)sc2n(-c2ccc(C)cc2)c1=O`: the TGI in assay [9], in assay [1], in [2], in assay [12], in assay [3] and in assay [4] was more than 100 µM in each case. Moreover, the TGI in assay [5], in assay [6], in [7] and in assay [11] was more than 100 µM throughout.

On to `c1nc(NCCc2cnc[nH]2)c2[nH]cnc2n1`, for which the TGI in assay [8], in assay [9], in assay [1], in [2], in assay [12] and in assay [3] was more than 100 µM throughout. Also, the TGI in [4], in assay [5], in assay [6], in assay [10] and in assay [7] was more than 100 µM throughout.

For the molecule `COc1cc2ccc(C(=O)NCCCNC(=O)c3ccc4cc(OC)c(OC)cc4c3)cc2cc1OC`, the TGI in assay [8], in [9], in assay [1], in assay [2], in assay [3] and in assay [4] was more than 100 µM each time. Further, the TGI in assay [6], in [10], in assay [7] and in assay [11] was more than 100 µM throughout.

Turning to `CC(C(=O)OCc1ccccc1)N(Cc1ccccc1)Cc1ccccc1` (stereo unspecified), the TGI is more than 100 µM in assay [1]; more than 100 µM in [2]; more than 100 µM in [12]; more than 100 µM in [3]; more than 100 µM in assay [4]; 88 µM in [5]. Further, the TGI in [6] and in [7] was more than 100 µM in each case.

Consider `O=C1NC(=O)c2ccccc2/C1=C/c1ccc2c(c1)OCO2`, for which the TGI in assay [8] is more than 100 µM; in assay [1], more than 100 µM; in assay [12] it was more than 100 µM; in assay [3], 83.1 µM; in assay [4], 95.1 µM; in [5], 17.4 µM. The TGI is more than 100 µM in [6], 50.1 µM in assay [10], 29.8 µM in assay [7] and more than 100 µM in assay [11].

Regarding `O=C1COc2cc(N3CCN(c4cccc(C(F)(F)F)c4)CC3)ccc2N1`, the TGI in assay [8], in assay [9], in assay [1], in [2], in [12] and in assay [3] was more than 100 µM in each case. The TGI in [4], in assay [6], in assay [10], in assay [7] and in assay [11] was more than 100 µM throughout.

Regarding `CC(C)(C)C1CCC2c3c([nH]c4ccccc34)C3C(=O)N(c4ccc(C#N)cc4)C(=O)C3C2C1` (stereo unspecified), the TGI in assay [8] is 33.7 µM; in assay [9], 17.6 µM; in [1], 63.4 µM; in [2], 36.3 µM; in [12], more than 100 µM; in assay [3], more than 100 µM. For the same molecule, the TGI in assay [4] is 45.6 µM; in assay [5], 15.4 µM; in assay [10], more than 100 µM; in [7] it was 25.5 µM; in assay [11], more than 100 µM.

In the case of `CN1/C(=C/C=C/C=C/C=C2C(=O)c3ccccc3C2=O)C(C)(C)c2ccccc21`, the TGI was more than 100 µM in [8]; more than 100 µM in assay [1]; more than 100 µM in assay [3]; more than 100 µM in [4]; 81.4 µM in [5]; more than 100 µM in assay [6]. Also, the TGI is more than 100 µM in assay [10], 36.1 µM in [7] and more than 100 µM in [11].

With `NS(=O)(=O)c1nc(S(=O)(=O)O)c2[nH]cnc2n1`, the TGI in [8], in [9], in assay [1], in [2], in assay [12] and in assay [3] was more than 100 µM throughout. Moreover, the TGI in assay [4], in assay [5], in [10], in [7] and in [11] was more than 100 µM each time.

For the molecule `C/C=C(\C)C(=O)OC1CC(OC(C)=O)C2(C(=O)OC)COC3C2C1(C)C1C2(C(=O)OC)OCC1(C3O)C1(O)C3CC(C4(O)C=COC4O3)C1(C)O2` (stereo unspecified), the TGI in [8], in [9], in assay [1], in assay [2], in assay [12] and in [3] was more than 100 µM in each case. In addition, the TGI in assay [4], in assay [5], in [10], in assay [7] and in [11] was more than 100 µM throughout.

On to `CC(=O)n1cc(C2CC23N=C(c2ccccc2)OC3=O)c2ccccc21` (stereo unspecified), for which the TGI was 33.5 µM in assay [8]; 41.5 µM in assay [9]; 53.8 µM in [1]; 45.6 µM in assay [2]; more than 100 µM in assay [3]; 35.3 µM in assay [4]. Further, the TGI was 34.6 µM in assay [5]; 7.86 µM in [6]; 72.9 µM in [10]; 40.2 µM in [7]; 42.9 µM in [11].

As to `N#C/C(=C/C=C/c1ccco1)C(N)=O`, the TGI in [8], in assay [9], in [1], in [2], in assay [3] and in assay [4] was more than 10 µM throughout. Also, the TGI in assay [5], in assay [10], in assay [7] and in assay [11] was more than 10 µM throughout.

Take `CCc1cccc2c3c([nH]c12)-c1ccccc1NC(=O)C3`: the TGI in assay [8], in [1], in assay [2], in assay [12], in [3] and in [4] was more than 100 µM in each case. In addition, the TGI in assay [6], in [10], in [7] and in assay [11] was more than 100 µM in each case.

As to `COc1ccc(C#Cn2nnc3ccccc32)cc1`, the TGI in [8], in assay [9], in [1], in assay [2], in assay [12] and in assay [3] was more than 100 µM in each case. Moreover, the TGI in [4], in [5], in assay [10], in [7] and in assay [11] was more than 100 µM each time.

Take `O=c1c2cc(C(F)(F)F)ccc2sc2c(NCCCNCCO)nc3ccccc3c12`: the GI50 in assay [9] was 1.69 µM; in assay [2], 1.87 µM; in assay [3], 1.81 µM; in assay [5] it was 1.4 µM; in assay [10] it was 1.62 µM; in [7], 1.62 µM. The TGI in [9] came to 3.24 µM; in [2] it was 3.32 µM; in [3], 3.3 µM; in assay [5], 2.82 µM; in [10] it was 3.04 µM; in [7], 3.01 µM.

For `Clc1sc(Cl)c2c1[C@@H](Cl)C[C@@H]2Cl`, the TGI in assay [8], in assay [1], in assay [2], in [12], in assay [3] and in assay [4] was more than 100 µM in each case. Moreover, the TGI in assay [6], in assay [10], in assay [7] and in [11] was more than 100 µM throughout.
